Laboratory results reported in ChEMBL document CHEMBL5463729, “Data for DCP probe BAY 1753011” (2023).

Legend:
Settings in all cases: Compound concentration 10.0 uM
[1] = molecular target: Mitogen-activated protein kinase kinase kinase 5 (Homo sapiens) (UniProt Q99683); assay: Inhibition of ASK1(h) at 10.0 µM in the Eurofins Kinase panel
[2] = molecular target: CDC7/Cyclin B1 (Homo sapiens) (UniProt P14635+O00311); assay: Inhibition of Cdc7/cyclinB1(h) at 10.0 µM in the Eurofins Kinase panel; type: protein-complex assay
[3] = molecular target: Cyclin-Y/Cyclin-dependent kinase 16 (Homo sapiens) (UniProt Q00536+Q8ND76); assay: Inhibition of CDK16/cyclinY(h) at 10.0 µM in the Eurofins Kinase panel; type: protein-complex assay
[4] = molecular target: CDK6/cyclin D3 (Homo sapiens) (UniProt P30281+Q00534); assay: Inhibition of CDK6/cyclinD3(h) at 10.0 µM in the Eurofins Kinase panel; type: protein-complex assay
[5] = molecular target: Mitogen-activated protein kinase kinase kinase 8 (Homo sapiens) (UniProt P41279); assay: Inhibition of COT(h) at 10.0 µM in the Eurofins Kinase panel
[6] = molecular target: RAF proto-oncogene serine/threonine-protein kinase (Homo sapiens) (UniProt P04049); assay: Inhibition of c-RAF(h) at 10.0 µM in the Eurofins Kinase panel
[7] = molecular target: Dual specificity tyrosine-phosphorylation-regulated kinase 1B (Homo sapiens) (UniProt Q9Y463); assay: Inhibition of DYRK1B(h) at 10.0 µM in the Eurofins Kinase panel
[8] = molecular target: Ephrin type-B receptor 3 (Homo sapiens) (UniProt P54753); assay: Inhibition of EphB3(h) at 10.0 µM in the Eurofins Kinase panel
[9] = molecular target: Macrophage colony-stimulating factor 1 receptor (Homo sapiens) (UniProt P07333); assay: Inhibition of Fms(h) at 10.0 µM in the Eurofins Kinase panel
[10] = molecular target: Homeodomain-interacting protein kinase 2 (Homo sapiens) (UniProt Q9H2X6); assay: Inhibition of HIPK2(h) at 10.0 µM in the Eurofins Kinase panel
[11] = molecular target: Homeodomain-interacting protein kinase 3 (Homo sapiens) (UniProt Q9H422); assay: Inhibition of HIPK3(h) at 10.0 µM in the Eurofins Kinase panel
[12] = molecular target: Inhibitor of nuclear factor kappa-B kinase subunit epsilon (Homo sapiens) (UniProt Q14164); assay: Inhibition of IKKepsilon(h) at 10.0 µM in the Eurofins Kinase panel
[13] = molecular target: Vascular endothelial growth factor receptor 2 (Homo sapiens) (UniProt P35968); assay: Inhibition of KDR(h) at 10.0 µM in the Eurofins Kinase panel
[14] = molecular target: Serine/threonine-protein kinase LATS1 (Homo sapiens) (UniProt O95835); assay: Inhibition of LATS1(h) at 10.0 µM in the Eurofins Kinase panel
[15] = molecular target: LIM domain kinase 1 (Homo sapiens) (UniProt P53667); assay: Inhibition of LIMK1(h) at 10.0 µM in the Eurofins Kinase panel
[16] = molecular target: Serine/threonine-protein kinase 10 (Homo sapiens) (UniProt O94804); assay: Inhibition of LOK(h) at 10.0 µM in the Eurofins Kinase panel
[17] = molecular target: MAP kinase-activated protein kinase 3 (Homo sapiens) (UniProt Q16644); assay: Inhibition of MAPKAP-K3(h) at 10.0 µM in the Eurofins Kinase panel
[18] = molecular target: Mitogen-activated protein kinase kinase kinase 10 (Homo sapiens) (UniProt Q02779); assay: Inhibition of MLK2(h) at 10.0 µM in the Eurofins Kinase panel
[19] = molecular target: Interferon-induced, double-stranded RNA-activated protein kinase (Homo sapiens) (UniProt P19525); assay: Inhibition of PKR(h) at 10.0 µM in the Eurofins Kinase panel
[20] = molecular target: Mitogen-activated protein kinase 12 (Homo sapiens) (UniProt P53778); assay: Inhibition of SAPK3(h) at 10.0 µM in the Eurofins Kinase panel
[21] = molecular target: Serine/threonine-protein kinase ULK3 (Homo sapiens) (UniProt Q6PHR2); assay: Inhibition of ULK3(h) at 10.0 µM in the Eurofins Kinase panel
[22] = molecular target: Wee1-like protein kinase 2 (Homo sapiens) (UniProt P0C1S8); assay: Inhibition of Wee1B(h) at 10.0 µM in the Eurofins Kinase panel
[23] = molecular target: Serine/threonine-protein kinase WNK1 (Homo sapiens) (UniProt Q9H4A3); assay: Inhibition of WNK1(h) at 10.0 µM in the Eurofins Kinase panel
[24] = molecular target: T1, 5-hydroxytryptamine receptor 1A (Homo sapiens) (UniProt P08908)
T1 sequence (whole entry): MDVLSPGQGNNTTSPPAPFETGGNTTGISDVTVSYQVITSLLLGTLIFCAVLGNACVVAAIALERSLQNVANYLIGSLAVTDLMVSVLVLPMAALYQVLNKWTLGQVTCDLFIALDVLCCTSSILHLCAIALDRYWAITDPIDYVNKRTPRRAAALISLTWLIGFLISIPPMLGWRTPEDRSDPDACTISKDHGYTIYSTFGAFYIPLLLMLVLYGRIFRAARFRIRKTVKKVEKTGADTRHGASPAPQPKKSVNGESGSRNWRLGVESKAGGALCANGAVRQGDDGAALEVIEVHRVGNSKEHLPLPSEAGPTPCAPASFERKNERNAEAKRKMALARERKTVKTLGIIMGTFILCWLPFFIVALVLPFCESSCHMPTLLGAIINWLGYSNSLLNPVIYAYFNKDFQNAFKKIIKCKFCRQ

[25] = molecular target: 5-hydroxytryptamine receptor 5A (Homo sapiens) (UniProt P47898)
[26] = molecular target: 5-hydroxytryptamine receptor 7 (Homo sapiens) (UniProt P34969)
[27] = molecular target: Beta-1 adrenergic receptor (Homo sapiens) (UniProt P08588)
[28] = molecular target: D(3) dopamine receptor (Homo sapiens) (UniProt P35462)
[29] = molecular target: 5-hydroxytryptamine receptor 2B (Homo sapiens) (UniProt P41595)

Chain of 5-hydroxytryptamine receptor 5A (Homo sapiens) (P47898 whole entry): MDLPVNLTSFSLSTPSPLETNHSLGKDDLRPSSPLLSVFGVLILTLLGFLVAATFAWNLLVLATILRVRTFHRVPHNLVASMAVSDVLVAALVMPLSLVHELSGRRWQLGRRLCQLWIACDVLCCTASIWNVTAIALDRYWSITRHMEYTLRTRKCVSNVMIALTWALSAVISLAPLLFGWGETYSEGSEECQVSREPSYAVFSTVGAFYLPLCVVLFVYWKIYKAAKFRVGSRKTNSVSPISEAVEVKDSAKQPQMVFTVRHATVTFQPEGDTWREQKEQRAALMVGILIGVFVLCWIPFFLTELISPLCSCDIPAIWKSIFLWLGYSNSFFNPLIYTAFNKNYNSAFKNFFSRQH
Chain of 5-hydroxytryptamine receptor 7 (Homo sapiens) (P34969 whole entry): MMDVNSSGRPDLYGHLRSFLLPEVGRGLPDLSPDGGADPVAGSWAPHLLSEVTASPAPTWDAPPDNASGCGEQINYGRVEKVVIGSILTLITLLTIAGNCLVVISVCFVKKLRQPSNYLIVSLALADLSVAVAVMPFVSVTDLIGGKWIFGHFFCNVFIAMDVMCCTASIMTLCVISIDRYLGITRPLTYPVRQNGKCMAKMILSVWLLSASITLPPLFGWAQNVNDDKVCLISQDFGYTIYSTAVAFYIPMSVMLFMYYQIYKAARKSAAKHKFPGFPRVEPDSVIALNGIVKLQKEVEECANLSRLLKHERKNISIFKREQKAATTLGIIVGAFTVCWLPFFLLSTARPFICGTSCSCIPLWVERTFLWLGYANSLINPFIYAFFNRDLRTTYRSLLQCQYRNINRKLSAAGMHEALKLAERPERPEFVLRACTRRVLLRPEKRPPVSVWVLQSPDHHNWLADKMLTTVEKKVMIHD
Chain of Mitogen-activated protein kinase kinase kinase 8 (Homo sapiens) (P41279 whole entry): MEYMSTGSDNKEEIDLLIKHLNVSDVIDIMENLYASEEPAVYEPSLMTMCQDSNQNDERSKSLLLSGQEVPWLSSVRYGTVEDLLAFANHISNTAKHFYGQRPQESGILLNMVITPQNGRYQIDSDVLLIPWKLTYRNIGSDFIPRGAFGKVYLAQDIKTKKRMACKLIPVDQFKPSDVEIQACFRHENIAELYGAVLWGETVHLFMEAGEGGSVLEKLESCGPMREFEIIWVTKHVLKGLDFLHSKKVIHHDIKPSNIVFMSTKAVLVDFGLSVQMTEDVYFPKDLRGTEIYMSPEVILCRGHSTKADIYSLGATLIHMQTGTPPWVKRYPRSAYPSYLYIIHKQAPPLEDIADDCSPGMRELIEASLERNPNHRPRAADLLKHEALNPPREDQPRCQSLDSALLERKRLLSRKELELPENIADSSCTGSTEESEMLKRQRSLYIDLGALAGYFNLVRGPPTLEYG
Chain of Serine/threonine-protein kinase ULK3 (Homo sapiens) (Q6PHR2 whole entry): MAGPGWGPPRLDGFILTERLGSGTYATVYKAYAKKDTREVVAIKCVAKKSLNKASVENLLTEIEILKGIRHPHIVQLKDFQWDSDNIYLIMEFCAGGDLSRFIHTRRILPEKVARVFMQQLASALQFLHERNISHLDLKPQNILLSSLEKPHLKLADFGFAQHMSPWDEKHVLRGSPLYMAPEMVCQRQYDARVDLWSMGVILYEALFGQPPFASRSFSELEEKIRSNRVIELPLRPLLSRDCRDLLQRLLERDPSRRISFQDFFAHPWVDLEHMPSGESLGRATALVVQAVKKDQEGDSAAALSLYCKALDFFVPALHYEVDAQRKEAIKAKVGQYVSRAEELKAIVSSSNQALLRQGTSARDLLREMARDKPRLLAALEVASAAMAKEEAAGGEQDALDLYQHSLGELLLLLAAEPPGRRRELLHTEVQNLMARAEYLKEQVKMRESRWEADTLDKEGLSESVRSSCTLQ
Chain of Serine/threonine-protein kinase LATS1 (Homo sapiens) (O95835 whole entry, the tested form may be a part): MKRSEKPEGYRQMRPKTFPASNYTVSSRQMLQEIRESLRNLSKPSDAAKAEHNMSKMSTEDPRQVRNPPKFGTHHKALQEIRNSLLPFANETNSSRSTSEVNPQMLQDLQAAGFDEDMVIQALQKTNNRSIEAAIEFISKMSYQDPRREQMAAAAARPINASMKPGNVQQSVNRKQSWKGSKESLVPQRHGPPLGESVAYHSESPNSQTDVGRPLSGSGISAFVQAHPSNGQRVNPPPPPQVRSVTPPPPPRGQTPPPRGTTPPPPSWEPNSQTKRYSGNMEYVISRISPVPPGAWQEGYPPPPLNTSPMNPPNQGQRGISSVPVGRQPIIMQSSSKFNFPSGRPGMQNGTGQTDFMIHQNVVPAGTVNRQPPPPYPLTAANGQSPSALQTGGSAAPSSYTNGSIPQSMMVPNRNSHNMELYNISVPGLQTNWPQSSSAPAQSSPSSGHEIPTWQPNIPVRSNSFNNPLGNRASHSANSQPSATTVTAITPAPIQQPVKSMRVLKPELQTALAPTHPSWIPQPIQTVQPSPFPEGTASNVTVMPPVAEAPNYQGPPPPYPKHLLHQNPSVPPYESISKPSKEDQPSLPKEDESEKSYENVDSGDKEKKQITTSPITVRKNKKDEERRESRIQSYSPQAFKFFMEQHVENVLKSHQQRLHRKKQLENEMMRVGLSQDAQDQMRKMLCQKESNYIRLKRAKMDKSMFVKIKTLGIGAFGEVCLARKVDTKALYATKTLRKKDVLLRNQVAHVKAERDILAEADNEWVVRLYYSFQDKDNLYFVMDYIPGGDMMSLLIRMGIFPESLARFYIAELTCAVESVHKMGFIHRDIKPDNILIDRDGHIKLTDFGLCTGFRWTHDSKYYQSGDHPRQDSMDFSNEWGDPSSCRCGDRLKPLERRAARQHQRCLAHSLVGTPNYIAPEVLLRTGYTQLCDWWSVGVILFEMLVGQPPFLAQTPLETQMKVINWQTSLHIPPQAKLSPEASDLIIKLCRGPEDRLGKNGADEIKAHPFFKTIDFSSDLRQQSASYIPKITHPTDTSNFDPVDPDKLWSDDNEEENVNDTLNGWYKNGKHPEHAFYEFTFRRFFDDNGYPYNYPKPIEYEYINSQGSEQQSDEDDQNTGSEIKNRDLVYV
Chain of Interferon-induced, double-stranded RNA-activated protein kinase (Homo sapiens) (P19525 whole entry): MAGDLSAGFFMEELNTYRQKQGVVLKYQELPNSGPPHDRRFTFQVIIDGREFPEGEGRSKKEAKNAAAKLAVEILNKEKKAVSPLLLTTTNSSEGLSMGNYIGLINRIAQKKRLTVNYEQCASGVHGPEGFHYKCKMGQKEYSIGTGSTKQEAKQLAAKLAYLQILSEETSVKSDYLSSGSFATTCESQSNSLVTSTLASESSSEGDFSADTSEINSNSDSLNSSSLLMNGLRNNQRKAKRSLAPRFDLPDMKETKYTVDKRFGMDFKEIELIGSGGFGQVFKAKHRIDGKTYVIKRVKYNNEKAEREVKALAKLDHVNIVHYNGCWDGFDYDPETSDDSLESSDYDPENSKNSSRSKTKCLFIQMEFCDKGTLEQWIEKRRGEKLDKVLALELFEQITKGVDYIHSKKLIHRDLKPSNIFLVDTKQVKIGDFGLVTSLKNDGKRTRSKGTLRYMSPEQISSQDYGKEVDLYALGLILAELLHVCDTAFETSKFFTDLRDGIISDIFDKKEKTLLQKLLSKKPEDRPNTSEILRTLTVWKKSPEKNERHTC
Chain of Vascular endothelial growth factor receptor 2 (Homo sapiens) (P35968 whole entry): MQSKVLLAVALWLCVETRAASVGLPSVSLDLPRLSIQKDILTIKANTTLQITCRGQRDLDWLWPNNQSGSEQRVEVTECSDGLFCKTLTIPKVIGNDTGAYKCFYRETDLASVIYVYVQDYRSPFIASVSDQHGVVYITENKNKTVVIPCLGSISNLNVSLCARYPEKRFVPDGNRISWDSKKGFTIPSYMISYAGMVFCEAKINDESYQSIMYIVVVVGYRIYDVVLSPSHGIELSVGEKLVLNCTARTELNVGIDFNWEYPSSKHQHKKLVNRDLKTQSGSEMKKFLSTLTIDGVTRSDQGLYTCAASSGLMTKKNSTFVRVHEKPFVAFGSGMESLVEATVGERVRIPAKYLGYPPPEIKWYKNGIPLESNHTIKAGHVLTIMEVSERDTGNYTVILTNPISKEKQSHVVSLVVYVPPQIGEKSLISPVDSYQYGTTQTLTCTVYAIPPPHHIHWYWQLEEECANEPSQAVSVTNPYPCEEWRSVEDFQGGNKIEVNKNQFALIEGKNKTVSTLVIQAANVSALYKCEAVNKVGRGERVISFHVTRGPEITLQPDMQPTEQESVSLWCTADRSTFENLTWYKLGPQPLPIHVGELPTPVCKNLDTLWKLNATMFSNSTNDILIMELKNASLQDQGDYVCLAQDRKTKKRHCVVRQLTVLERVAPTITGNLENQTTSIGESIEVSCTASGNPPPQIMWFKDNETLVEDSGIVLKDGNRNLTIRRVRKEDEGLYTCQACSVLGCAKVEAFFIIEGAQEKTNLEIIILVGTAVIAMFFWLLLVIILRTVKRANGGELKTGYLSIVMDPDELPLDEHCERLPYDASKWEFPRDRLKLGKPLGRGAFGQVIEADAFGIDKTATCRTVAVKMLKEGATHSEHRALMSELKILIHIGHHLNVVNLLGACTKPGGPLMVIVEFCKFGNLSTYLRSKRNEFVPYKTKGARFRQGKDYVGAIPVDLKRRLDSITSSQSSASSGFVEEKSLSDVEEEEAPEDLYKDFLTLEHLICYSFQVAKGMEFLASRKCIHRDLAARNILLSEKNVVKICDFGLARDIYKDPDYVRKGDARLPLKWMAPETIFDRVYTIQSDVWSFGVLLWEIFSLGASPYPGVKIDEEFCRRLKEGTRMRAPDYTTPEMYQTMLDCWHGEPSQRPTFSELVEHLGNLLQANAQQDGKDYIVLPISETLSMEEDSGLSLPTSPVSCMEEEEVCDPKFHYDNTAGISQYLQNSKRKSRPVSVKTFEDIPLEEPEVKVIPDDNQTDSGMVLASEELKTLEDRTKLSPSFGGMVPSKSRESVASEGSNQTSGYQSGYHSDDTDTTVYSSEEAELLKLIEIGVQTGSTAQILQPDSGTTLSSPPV

| SMILES | inhibition [1] [%] | inhibition [2] [%] | inhibition [3] [%] | inhibition [4] [%] | inhibition [5] [%] | inhibition [6] [%] | inhibition [7] [%] | inhibition [8] [%] | inhibition [9] [%] | inhibition [10] [%] | inhibition [11] [%] | inhibition [12] [%] | inhibition [13] [%] | inhibition [14] [%] | inhibition [15] [%] | inhibition [16] [%] | inhibition [17] [%] | inhibition [18] [%] | inhibition [19] [%] | inhibition [20] [%] | other results |
| --- | --- | --- | --- | --- | --- | --- | --- | --- | --- | --- | --- | --- | --- | --- | --- | --- | --- | --- | --- | --- | --- |
| O=c1n(Cc2cncn2-c2cccc(Cl)c2)nc(-c2ccc(Cl)cc2)n1C[C@H](O)C(F)(F)F | -1.47 | 3.68 | 4.57 | 0.27 | -1.4 | -1.49 | 15.4 | 7.39 | 5.33 | -9.36 | 2.57 | 0.02 | -2.77 | -2.66 | 0.42 | 10.4 | -3.79 | 0.43 | -3.03 | -3.96 | inhibition [21]: 6.3%; inhibition [22]: 7.62%; inhibition [23]: -5.38%; inhibition [24]: 33.3%; inhibition [25]: -4.02%; inhibition [26]: -2%; inhibition [27]: 5%; inhibition [28]: -8%; inhibition [29]: 12% |
| C[C@H](O)c1nc(Cn2nc(-c3ccc(Cl)cc3)n(C[C@H](O)C(F)(F)F)c2=O)nn1-c1cccc(Cl)c1 [PECAVAPTAN] | -8.63 | 9.78 | -5.42 | -0.62 | -0.64 | -1.46 | 15.8 | 1.81 | -2.47 | -6.27 | 3.3 | 3.03 | 1.28 | -5.36 | 0.57 | 2.48 | -7.04 | 4.18 | 1.32 | -0.09 | inhibition [21]: 10.9%; inhibition [22]: 7.48%; inhibition [23]: 6.35%; inhibition [24]: 46.8%; inhibition [25]: 3.65%; inhibition [26]: 17.6%; inhibition [27]: 5%; inhibition [28]: 26%; inhibition [29]: 52% |
